Active and inactive are the calls of the source. The calls are words filed in the database; no cut-off is given here.
Experiments:
[1] = Cmax in patient with advanced solid tumor at 80 mg, po administered once daily measured on day 15; format: ADME, organism-based; design: dose 80 mg, route oral; details: human, in vivo
[2] = target: A-type voltage-gated potassium channel KCND3 (Homo sapiens, UniProt Q9UK17); assay: Activity at human Kv4.3 at 10 uM
[3] = target: Prolactin-releasing peptide receptor (Homo sapiens) (UniProt P49683); assay: Activity at human PRP receptor at 10 uM
Chain of Prolactin-releasing peptide receptor (Homo sapiens) (P49683 whole entry): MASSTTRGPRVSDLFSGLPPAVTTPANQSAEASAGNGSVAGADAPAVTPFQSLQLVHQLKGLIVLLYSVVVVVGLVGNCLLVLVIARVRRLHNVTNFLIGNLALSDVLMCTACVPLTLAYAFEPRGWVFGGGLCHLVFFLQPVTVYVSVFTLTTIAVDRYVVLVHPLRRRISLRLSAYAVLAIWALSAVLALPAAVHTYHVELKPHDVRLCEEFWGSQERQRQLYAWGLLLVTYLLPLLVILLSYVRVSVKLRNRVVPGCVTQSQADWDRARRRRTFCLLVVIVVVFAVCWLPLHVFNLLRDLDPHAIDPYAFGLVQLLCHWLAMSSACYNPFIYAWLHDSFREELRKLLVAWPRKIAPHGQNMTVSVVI

[4] = target: CX3C chemokine receptor 1 (Homo sapiens) (UniProt P49238); assay: Activity at human CX3CR1 receptor at 10 uM
[5] = target: Cannabinoid receptor 2 (Homo sapiens) (UniProt P34972); assay: Activity at human CB2 receptor at 10 uM
[6] = target: Mitogen-activated protein kinase 1 (Homo sapiens) (UniProt P28482); assay: Activity at human MAPK2 at 10 uM
[7] = target: T1, UDP-glucuronosyltransferase 2B17 (Homo sapiens, UniProt O75795); assay: Substrate activity at UGT2B17 in human intestinal microsomes assessed as enzyme-mediated glucuronidation by measuring Vmax per mg protein at 2 to 1000 uM preincubated for 5 mins followed by UDPGA addition and measured after 60 mins by LC-MS/MS analysis; format: ADME, Intestine; details: 1 h
T1 sequence (O75795 whole entry): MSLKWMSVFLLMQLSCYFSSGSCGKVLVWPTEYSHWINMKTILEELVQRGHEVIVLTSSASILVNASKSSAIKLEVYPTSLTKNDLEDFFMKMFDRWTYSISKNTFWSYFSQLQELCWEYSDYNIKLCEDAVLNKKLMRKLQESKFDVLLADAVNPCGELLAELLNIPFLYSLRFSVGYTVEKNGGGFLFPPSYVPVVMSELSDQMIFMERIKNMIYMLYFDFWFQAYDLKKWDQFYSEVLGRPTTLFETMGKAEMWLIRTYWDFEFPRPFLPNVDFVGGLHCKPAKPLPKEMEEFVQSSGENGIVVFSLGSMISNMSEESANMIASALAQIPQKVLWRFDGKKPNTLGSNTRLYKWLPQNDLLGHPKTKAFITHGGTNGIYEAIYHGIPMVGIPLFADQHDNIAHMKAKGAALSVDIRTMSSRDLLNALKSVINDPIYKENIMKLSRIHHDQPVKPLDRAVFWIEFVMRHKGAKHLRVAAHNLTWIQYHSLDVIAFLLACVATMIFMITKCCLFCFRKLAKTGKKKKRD

[8] = target: Endothelin receptor type B (Homo sapiens) (UniProt P24530); assay: Activity at human ETB receptor at 10 uM
[9] = target: Neuromedin-K receptor (Homo sapiens) (UniProt P29371); assay: Activity at human NK3 receptor at 10 uM
[10] = target: Alpha-1D adrenergic receptor (Homo sapiens) (UniProt P25100); assay: Activity at human alpha1D receptor at 10 uM
Chain of Alpha-1D adrenergic receptor (Homo sapiens) (P25100 whole entry): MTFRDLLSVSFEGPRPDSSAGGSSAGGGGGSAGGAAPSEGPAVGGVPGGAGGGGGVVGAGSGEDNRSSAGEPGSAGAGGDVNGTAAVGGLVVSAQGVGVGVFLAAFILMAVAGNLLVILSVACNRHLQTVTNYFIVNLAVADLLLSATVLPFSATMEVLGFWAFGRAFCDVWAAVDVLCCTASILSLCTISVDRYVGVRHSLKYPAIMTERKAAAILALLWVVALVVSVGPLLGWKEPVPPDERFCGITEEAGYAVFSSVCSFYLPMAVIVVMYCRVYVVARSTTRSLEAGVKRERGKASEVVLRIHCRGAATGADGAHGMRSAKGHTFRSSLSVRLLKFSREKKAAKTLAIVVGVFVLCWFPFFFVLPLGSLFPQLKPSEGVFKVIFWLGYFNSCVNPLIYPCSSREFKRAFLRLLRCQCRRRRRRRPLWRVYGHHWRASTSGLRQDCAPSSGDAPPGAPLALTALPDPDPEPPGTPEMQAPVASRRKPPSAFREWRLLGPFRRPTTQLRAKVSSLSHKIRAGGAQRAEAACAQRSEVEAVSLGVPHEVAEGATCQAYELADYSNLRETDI

Mus musculus = assay: In vivo inhibition of HIF-2alpha in SCID Beige mouse xenografted with human 786-O cells assessed as reduction in cyclin D1 mRNA expression administered twice daily via oral gavage for 3 days measured 12 hrs post-last dose by qRT-PCR analysis; format: functional, organism-based
[11] = target: Urotensin-2 receptor (Homo sapiens) (UniProt Q9UKP6); assay: Activity at human GPR14 receptor at 10 uM
[12] = Cmax in patient with advanced solid tumor at 40 mg, po administered once daily measured on day 15; format: ADME, organism-based; design: dose 40 mg, route oral; details: human, in vivo
[13] = target: Tyrosine-protein kinase ABL1 (Homo sapiens) (UniProt P00519); assay: Activity at human Abl at 10 uM
[14] = target: Mitogen-activated protein kinase 14 (Homo sapiens) (UniProt Q16539); assay: Activity at human SAPK2a at 10 uM
[15] = AUClast in patient with advanced solid tumor at 120 mg, po administered once daily measured on day 15; format: ADME, organism-based; design: dose 120 mg, route oral, time 0 - last; details: human, in vivo
[16] = target: Calcium/calmodulin-dependent protein kinase type II subunit beta (Homo sapiens) (UniProt Q13554); assay: Activity at human CAMK2B at 10 uM
[17] = target: Beta-2 adrenergic receptor (Homo sapiens) (UniProt P07550); assay: Activity at human beta2 receptor at 10 uM
[18] = target: Potassium voltage-gated channel subfamily KQT member 1 (Homo sapiens, UniProt P51787); assay: Activity at human KCNQ1 at 10 uM
Chain of Potassium voltage-gated channel subfamily KQT member 1 (P51787 whole entry): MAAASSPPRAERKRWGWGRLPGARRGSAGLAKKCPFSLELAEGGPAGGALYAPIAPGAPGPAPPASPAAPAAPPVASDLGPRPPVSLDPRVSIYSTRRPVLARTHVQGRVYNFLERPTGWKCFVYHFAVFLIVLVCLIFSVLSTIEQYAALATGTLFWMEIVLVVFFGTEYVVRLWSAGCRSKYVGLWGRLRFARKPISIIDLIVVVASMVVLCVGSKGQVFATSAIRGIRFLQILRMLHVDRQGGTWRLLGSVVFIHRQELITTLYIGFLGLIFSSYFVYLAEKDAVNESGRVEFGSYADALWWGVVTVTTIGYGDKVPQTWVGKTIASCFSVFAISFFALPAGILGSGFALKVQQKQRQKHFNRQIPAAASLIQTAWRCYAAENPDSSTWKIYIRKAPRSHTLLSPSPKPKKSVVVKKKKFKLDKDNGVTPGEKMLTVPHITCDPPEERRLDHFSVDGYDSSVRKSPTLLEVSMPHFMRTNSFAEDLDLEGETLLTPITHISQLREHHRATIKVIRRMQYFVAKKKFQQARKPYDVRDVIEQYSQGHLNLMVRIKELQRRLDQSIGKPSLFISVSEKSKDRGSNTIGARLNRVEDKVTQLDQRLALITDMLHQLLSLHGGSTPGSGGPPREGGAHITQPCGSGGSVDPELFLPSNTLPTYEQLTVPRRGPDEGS

Cytochrome P450 2B6 = Cytochrome P450 2B6 (Homo sapiens, UniProt P20813); assay: Inhibition of CYP2B6 in human liver microsomes up to 50 uM using bupropion as substrate measured after 10 mins in presence of NADPH by LC-MS/MS analysis; format: ADME
Chain of Cytochrome P450 2B6 (P20813 whole entry): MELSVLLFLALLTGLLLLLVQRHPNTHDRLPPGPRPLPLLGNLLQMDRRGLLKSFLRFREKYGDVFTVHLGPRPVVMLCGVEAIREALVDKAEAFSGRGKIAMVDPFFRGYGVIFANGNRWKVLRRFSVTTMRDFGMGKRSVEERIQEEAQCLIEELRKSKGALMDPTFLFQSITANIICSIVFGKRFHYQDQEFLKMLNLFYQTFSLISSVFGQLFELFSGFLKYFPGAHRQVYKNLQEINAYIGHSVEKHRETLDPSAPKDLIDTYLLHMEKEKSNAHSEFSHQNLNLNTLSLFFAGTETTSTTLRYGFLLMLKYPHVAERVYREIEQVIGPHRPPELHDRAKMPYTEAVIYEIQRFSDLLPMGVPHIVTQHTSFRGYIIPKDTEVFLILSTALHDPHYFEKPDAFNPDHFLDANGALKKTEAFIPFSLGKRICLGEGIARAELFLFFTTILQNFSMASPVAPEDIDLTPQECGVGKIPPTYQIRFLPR

[19] = target: D(1B) dopamine receptor (Homo sapiens) (UniProt P21918); assay: Activity at human D5 receptor at 10 uM
Chain of D(1B) dopamine receptor (Homo sapiens) (P21918 whole entry): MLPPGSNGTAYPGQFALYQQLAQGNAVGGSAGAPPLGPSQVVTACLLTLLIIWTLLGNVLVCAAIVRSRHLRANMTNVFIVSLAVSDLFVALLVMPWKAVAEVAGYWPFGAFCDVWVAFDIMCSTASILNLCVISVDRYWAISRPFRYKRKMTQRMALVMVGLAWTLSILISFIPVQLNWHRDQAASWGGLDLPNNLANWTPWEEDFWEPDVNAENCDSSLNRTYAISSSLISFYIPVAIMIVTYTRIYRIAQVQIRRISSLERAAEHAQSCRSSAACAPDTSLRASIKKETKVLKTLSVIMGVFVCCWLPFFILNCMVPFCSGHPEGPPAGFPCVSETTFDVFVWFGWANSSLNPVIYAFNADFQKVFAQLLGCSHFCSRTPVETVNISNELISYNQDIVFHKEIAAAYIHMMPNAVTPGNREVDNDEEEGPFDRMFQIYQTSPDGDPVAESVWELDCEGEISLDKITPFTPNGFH

[20] = target: Calcium/calmodulin-dependent protein kinase type II subunit delta (Homo sapiens) (UniProt Q13557); assay: Activity at human CAMK2D at 10 uM
Chain of Calcium/calmodulin-dependent protein kinase type II subunit delta (Homo sapiens) (Q13557 whole entry): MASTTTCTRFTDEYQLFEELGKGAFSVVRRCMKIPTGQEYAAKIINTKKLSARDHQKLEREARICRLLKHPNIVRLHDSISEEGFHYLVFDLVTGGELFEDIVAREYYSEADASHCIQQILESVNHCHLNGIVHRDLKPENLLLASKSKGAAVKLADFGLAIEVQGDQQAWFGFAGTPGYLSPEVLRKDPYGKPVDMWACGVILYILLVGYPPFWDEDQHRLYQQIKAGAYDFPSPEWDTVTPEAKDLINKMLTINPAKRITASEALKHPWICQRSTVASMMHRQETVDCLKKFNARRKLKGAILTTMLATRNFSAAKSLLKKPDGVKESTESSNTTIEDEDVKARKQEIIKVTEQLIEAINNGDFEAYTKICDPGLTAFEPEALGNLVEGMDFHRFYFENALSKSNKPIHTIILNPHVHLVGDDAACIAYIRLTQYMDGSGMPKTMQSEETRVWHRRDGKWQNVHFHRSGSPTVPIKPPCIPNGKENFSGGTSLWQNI

[21] = target: Calcium/calmodulin-dependent protein kinase type II subunit gamma (Homo sapiens) (UniProt Q13555); assay: Activity at human CAMK2G at 10 uM
Chain of Calcium/calmodulin-dependent protein kinase type II subunit gamma (Homo sapiens) (Q13555 whole entry): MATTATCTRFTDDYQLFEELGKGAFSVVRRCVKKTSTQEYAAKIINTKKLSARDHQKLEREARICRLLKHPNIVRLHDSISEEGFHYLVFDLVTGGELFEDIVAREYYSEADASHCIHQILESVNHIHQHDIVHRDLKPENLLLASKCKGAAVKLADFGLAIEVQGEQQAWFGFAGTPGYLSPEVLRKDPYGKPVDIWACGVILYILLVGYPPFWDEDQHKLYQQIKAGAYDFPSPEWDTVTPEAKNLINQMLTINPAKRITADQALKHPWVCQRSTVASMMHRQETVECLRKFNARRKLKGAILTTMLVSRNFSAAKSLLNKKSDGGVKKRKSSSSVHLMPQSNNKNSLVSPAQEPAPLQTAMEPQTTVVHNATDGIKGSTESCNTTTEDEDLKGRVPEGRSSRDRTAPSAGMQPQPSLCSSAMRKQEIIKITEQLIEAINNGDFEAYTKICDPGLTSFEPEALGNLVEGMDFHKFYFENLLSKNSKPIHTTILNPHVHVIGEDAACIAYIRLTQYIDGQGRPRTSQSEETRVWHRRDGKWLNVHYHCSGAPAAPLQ

[22] = target: Corticotropin-releasing factor receptor 1 (Homo sapiens) (UniProt P34998); assay: Activity at human CRF1 receptor at 10 uM
Chain of Corticotropin-releasing factor receptor 1 (Homo sapiens) (P34998 whole entry): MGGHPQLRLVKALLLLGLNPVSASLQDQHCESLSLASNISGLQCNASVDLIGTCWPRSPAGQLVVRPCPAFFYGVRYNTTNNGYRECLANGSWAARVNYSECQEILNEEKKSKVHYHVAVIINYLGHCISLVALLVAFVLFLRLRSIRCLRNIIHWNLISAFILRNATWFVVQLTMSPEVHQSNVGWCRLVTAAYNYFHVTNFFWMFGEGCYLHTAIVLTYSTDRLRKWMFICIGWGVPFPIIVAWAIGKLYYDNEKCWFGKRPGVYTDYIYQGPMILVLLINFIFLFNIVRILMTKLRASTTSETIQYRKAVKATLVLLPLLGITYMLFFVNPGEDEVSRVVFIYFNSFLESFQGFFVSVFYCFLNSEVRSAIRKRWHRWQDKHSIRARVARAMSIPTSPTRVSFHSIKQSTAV

[23] = target: Type-1 angiotensin II receptor (Homo sapiens) (UniProt P30556); assay: Activity at human AT1 receptor at 10 uM
[24] = target: Substance-P receptor (Homo sapiens) (UniProt P25103); assay: Activity at human NK1 receptor at 10 uM
Chain of Substance-P receptor (Homo sapiens) (P25103 whole entry): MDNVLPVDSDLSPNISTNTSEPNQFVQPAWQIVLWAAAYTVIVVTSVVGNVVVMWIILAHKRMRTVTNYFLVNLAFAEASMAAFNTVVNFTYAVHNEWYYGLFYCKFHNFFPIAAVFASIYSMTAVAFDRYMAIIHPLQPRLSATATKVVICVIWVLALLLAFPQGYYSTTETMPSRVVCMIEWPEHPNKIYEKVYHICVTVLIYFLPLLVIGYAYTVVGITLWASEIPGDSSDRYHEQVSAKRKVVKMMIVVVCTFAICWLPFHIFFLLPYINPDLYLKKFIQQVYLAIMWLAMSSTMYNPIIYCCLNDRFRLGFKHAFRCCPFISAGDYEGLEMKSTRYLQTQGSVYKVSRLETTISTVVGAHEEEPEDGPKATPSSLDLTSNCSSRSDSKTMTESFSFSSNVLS

[25] = target: Protein kinase C alpha type (Homo sapiens) (UniProt P17252); assay: Activity at human PKCalpha at 10 uM
[26] = Cmax in patient with advanced solid tumor at 20 mg, po administered once daily measured on day 15; format: ADME, organism-based; design: dose 20 mg, route oral; details: human, in vivo
[27] = target: cGMP-dependent protein kinase 1 (Homo sapiens) (UniProt Q13976); assay: Activity at human PKG1beta at 10 uM
[28] = target: Leukotriene B4 receptor 1 (Homo sapiens) (UniProt Q15722); assay: Activity at human BLT1 receptor at 10 uM
Chain of Leukotriene B4 receptor 1 (Homo sapiens) (Q15722 whole entry): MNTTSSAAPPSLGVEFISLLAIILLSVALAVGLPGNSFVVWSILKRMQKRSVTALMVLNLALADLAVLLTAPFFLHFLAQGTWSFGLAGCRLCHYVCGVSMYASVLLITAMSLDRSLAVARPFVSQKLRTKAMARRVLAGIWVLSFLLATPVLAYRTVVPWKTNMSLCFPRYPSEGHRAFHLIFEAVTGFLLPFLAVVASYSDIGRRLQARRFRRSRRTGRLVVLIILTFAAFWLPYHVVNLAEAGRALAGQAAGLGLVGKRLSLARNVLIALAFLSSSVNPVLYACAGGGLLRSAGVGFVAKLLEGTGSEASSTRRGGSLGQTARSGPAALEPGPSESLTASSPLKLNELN

[29] = Half life in patient with advanced solid tumor at 20 mg, po administered once daily measured on day 15; format: ADME, organism-based; details: human, in vivo
[30] = target: Rho-associated protein kinase 2 (Homo sapiens) (UniProt O75116); assay: Activity at human ROCK2 at 10 uM
[31] = target: CDK2/Cyclin A2 (Homo sapiens) (UniProt P24941+P20248); assay: Activity at human CDK2/cyclinA at 10 uM; format: protein-complex assay
[32] = target: Ribosomal protein S6 kinase beta-1 (Homo sapiens) (UniProt P23443); assay: Activity at human p70S6K at 10 uM
[33] = Dose normalized AUClast in CD-1 mouse at 10 mg/kg, po administered via gavage by UPLC-MS analysis; format: ADME, organism-based; details: in vivo
[34] = target: CDK7/Cyclin H/MNAT1 (Homo sapiens) (UniProt P51946+P50613+P51948); assay: Activity at human CDK7/cyclinH/MAT1 at 10 uM; format: protein-complex assay
[35] = Half life in patient with advanced solid tumor at 120 mg, po administered once daily measured on day 15; format: ADME, organism-based; details: human, in vivo

For `CS(=O)(=O)c1ccc(Oc2cc(F)cc(C#N)c2)c2c1[C@H](O)[C@H](F)[C@@H]2F` [BELZUTIFAN], the Cmax [1] was 1400 ng/mL, the Activity [2] was “Not Active” and the Activity [3] was “inactive”. For the same compound, the Activity [4] was “inactive”, the Activity [5] was “inactive” and the Activity [6] was “inactive”. For the same compound, the Vmax [7] was 0.5 pmol/min, the Activity [8] was “inactive” and the Activity [9] was “inactive”. For the same compound, the Activity [10] was “inactive”, the inhibition (Mus musculus) was “Dose-dependent effect” and the Activity [11] was “inactive”. For the same compound, the Cmax [12] was 500 ng/mL, the Activity [13] was “inactive” and the Activity [14] was “inactive”. The AUC(0-t) [15] was 25900 ng·h/mL, the Activity [16] was “inactive” and the Activity [17] was “inactive”. For the same compound, the Activity [18] was “Not Active”, the “inhibition (INH)” value (Cytochrome P450 2B6) was “Not Active” and the Activity [19] was “inactive”. The Activity [20] was “inactive”, the Activity [21] was “inactive” and the Activity [22] was “inactive”. The Activity [23] was “inactive”, the Activity [24] was “inactive” and the Activity [25] was “inactive”. The Cmax [26] was 200 ng/mL, the Activity [27] was “inactive” and the Activity [28] was “inactive”. The half-life [29] was 12.5 h, the Activity [30] was “inactive” and the Activity [31] was “inactive”. The Activity [32] was “inactive”, the AUClast/dose [33] was 37 µM·h and the Activity [34] was “inactive”. For the same compound, the half-life [35] was 20.9 h.

Source: ChEMBL document CHEMBL4311943, “3-[(1S,2S,3R)-2,3-Difluoro-1-hydroxy-7-methylsulfonylindan-4-yl]oxy-5-fluorobenzonitrile (PT2977), a Hypoxia-Inducible Factor 2α (HIF-2α) Inhibitor for the Treatment of Clear Cell Renal Cell Carcinoma” (J Med Chem, 2019)
